Tests used:
[1] = tested on: RS1-10, Flp-In-293 cells; assay: Comparison of RS1-10 Flp-In cell line with constitutive Flp-In cell line; assay type: cell-based; conditions: Homo sapiens, 7 nM, 18 hours, FIG. 9G, read-out: luciferase signal relative to constitutively expressing cell line as 100%
Procedure: Single-copy insertion of RSI-10 sequence and subsequent cell-line generation was performed in Flp-In-293 cells according to manufacturer's protocols. The RS1-10 sequence fused to a Firefly Luciferase gene was cloned into a Flp-In compatible pcDNA5/FRT expression vector with a CMV promoter and BGH polyadenylation signal. The resulting Flp-In cell line carried a single-copy expression cassette of RS1-10 integrated into the genome. Similarly, a cell line constitutively expressing Firefly Luciferase from a single-copy genomic insertion was generated in Flp-In-293 cells. For the constitutive cell line, only the Firefly Luciferase gene was cloned into the pcDNA5/FRT expression vector that was used to generate the single-copy genomic insertion. Both cell lines were cultured in DMEM+10% FBS, collected after trypsinization, and then dispensed into 96-well plates (cell culture-treated). Each well of the plate was seeded with 1.0×10^5 cells in 100 μL culture medium. Subsequently, either DMSO vehicle or 24 A at specified doses was added to the wells of the plate containing the RS1-10 Flp-In 293 cells. Triplicate wells were used for each condition tested in the experiment. Plates were then incubated for 18 hours in a tissue culture incubator (5% CO2, 37 degrees C.). […]

[2] = tested on: RS1-10 and RS1-X1; assay: Luminescence of RS1-10 and RS1-X1 in HEK-293T cells; assay type: cell-based, human; conditions: 85 nM, 24 hours, RS1-X1 vs RS1-10, FIG. 8B
Procedure: A plasmid pool that was transfected into HEK-293T cells was treated for 24 hours with splice modulator 24 A at a concentration of 85 nM. RS1-10 was the starting minigene sequence and a variant switch sequence was identified from the switch sequence screen containing a 28 nucleotide intronic deletion compared to the RS1-10 sequence. […]. RS1-10 controlling a firefly luciferase gene or RS1-X1 controlling a firefly luciferase gene were cloned into individual expression plasmids containing a CMV promoter. HEK 293T cells were transfected with either the RS1-10 or RST-XT expression plasmid and were then treated for 24 hours with 85 nM 24 A while incubated in a tissue culture incubator (37° C., 5% CO2). The luminescence was measured as an endpoint analysis by adding 100 μL of a Luciferase substrate, such as Steady-Luc Firefly Luciferase substrate, to each well of the assay plate. The liquid contents of each well was transferred to a 96-well plate, mixed again for 2 min on an orbital shaker, and incubated at room temperature for 5 min. Finally, the luminescent signal from each well was measured with a plate reader (FIG. 8B).

[3] = tested on: RS3-13 minigene (Firefly Luciferase), HEK-293T cells; assay: Luciferase induction assay, RS3-13 with splice modulator compounds in HEK-293T cells; assay type: cell-based; conditions: Homo sapiens, 18 hours, n of 3, read-out: Mean fold-induction of luciferase (relative to vehicle control)
[4] = tested on: RS2-3 minigene (Firefly Luciferase), HEK-293T cells; assay: Luciferase induction assay, RS2-3 with splice modulator compounds in HEK-293T cells; assay type: cell-based; conditions: Homo sapiens, 18 hours, n of 3, read-out: Mean fold-induction of luciferase (relative to vehicle control)

With `CCN1CC(c2ccc(-c3ccc(-c4ccc5nn(C)cc5c4)cc3O)nn2)C1` [Compound 24A, 2-[6-(1-ethylazetidin-3-yl)pyridazin-3-yl]-5-(2-methyl-2H-indazol-5-yl)phenol] the activity at 0.007 µM [1] was ≥ 60%, the “luminescence (RLU)” value [2] was “RS1-X1 produced a higher luminescence (RLU) than RS1-10” and the fold induction at 0.1 µM ([3]; RS3-13, 100 nM) was 6.27. For the same molecule, the fold induction at 1 µM ([3]; RS3-13, 1,000 nM) was 42.4, the fold induction at 0.1 µM ([4]; RS2-3, 100 nM) was 14.5 and the fold induction at 1 µM ([4]; RS2-3, 1,000 nM) was 42.6.
